Experimental data from PubChem BioAssay AID1259338 (Broad Institute, 2017).
Active and inactive are the calls of the source.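 How the source made its calls: active means compounds lowering the signal with a fitted AC50 at or below a set concentration limit; inconclusive means flat curve with 30 to 70% inhibition, or a poor fit; inactive means the rest.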

Target: Caspase recruitment domain-containing protein 9 (Homo sapiens) + E3 ubiquitin-protein ligase TRIM62 (Homo sapiens) (UniProt Q9H257+Q9BVG3)
Sequence (Q9BVG3 whole entry, looked up, the tested form may be a part): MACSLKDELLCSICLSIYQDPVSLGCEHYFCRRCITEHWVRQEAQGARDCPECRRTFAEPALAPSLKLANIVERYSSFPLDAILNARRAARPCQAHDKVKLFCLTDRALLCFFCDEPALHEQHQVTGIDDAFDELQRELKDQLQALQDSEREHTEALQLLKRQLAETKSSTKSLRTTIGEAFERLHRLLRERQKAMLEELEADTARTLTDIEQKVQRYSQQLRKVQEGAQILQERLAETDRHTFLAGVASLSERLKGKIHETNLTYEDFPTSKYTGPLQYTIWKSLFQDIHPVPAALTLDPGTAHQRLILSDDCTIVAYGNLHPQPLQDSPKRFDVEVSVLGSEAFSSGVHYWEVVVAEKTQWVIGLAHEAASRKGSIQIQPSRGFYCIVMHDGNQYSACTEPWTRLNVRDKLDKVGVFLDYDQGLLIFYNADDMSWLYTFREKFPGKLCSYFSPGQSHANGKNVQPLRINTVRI
Sequence (Q9H257 whole entry, looked up, the tested form may be a part): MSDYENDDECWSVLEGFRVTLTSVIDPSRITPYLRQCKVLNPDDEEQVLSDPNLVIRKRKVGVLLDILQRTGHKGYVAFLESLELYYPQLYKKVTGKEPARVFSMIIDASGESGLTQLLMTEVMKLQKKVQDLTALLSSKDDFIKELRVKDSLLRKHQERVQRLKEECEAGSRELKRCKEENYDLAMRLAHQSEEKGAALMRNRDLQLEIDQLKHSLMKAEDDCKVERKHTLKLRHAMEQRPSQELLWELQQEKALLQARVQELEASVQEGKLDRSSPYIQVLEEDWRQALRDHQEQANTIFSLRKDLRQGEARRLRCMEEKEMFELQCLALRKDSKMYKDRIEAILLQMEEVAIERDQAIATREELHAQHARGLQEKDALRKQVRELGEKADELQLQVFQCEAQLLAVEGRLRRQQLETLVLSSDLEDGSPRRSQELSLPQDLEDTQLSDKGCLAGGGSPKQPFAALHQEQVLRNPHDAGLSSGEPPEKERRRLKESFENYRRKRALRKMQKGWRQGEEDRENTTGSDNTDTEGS
Test: CARD9/TRIM62 protein interaction inhibitors – cell lysate, HEK293FT lysates, Luminex bead readout, dose response (AID 1259338); on activity change, negative = inhibition: reference of the scale not given here
Details: Luminex bead PPI, MFI

| Structure (SMILES) | activity change, negative = inhibition (at 80 µM (top of the series)) | further results |
| --- | --- | --- |
| Cc1cncc(-c2ccc(S(N)(=O)=O)cc2F)c1 | – | AC50: 53.4 µM |
| CC1Cc2ccccc2N1CC(=O)NC(=O)NC(C)(C)C (stereo not given) | inactive | – |
| O=C(Nc1ccon1)c1cc2cccnc2n(Cc2ccccc2)c1=O | inactive | – |
| CCCCCn1c(NC(=O)c2ccco2)c(C(=O)OCC)c2nc3ccccc3nc21 | inactive | – |
| CCC12CCCN3CCc4c(n(c5ccccc45)C(O)(C(=O)OC)C1)C32 (stereo not given) | – | activity change, negative = inhibition (at 38 µM (top of the series)): inactive |
| O=C(N/N=C/C=C/c1ccco1)c1cncc(Br)c1 | inactive | – |
| O=C1CC2(CCN(C(=O)Nc3ccccc3)CC2)CN1Cc1ccc(Cl)cc1 | – | AC50: 68.7 µM |
| O=C(Nc1ccc2oc(-c3cccnc3)nc2c1)c1ccc2c(c1)OCCO2 | inactive | – |
| Cc1noc(C)c1S(=O)(=O)Nc1ccc2c(c1)C(=O)N([C@H](C)CO)C[C@H](C)[C@@H](CN(C)CC1CCCCC1)OCCCC[C@H](C)O2 | inactive | – |
| CC(C)(C)c1ccc(-c2nc(C#N)c(NCc3ccncc3)o2)cc1 | inactive | – |
| O=c1oc(/C=C/c2ccc([N+](=O)[O-])s2)nc2ccccc12 | inactive | – |
| CC1(C)Cc2c(c(N3CCOCC3)nc3sc(C(=O)NCc4ccco4)c(N)c23)CO1 | inactive | – |
| O=C(O)C1Oc2cc3ccccc3cc2O1 | – | AC50: 68.9 µM |
| C[C@H](CO)N1C[C@H](C)[C@@H](CN(C)CC2CCCCC2)OCCCC[C@H](C)Oc2ccc(NS(=O)(=O)c3ccc(F)cc3)cc2C1=O | – | AC50: 73 µM |
| NC(=O)C1(N2CCCCC2)CCN(c2ncc(NC(=O)c3cccc(Cl)c3)cc2C(=O)O)CC1 | – | AC50: 6.54 µM |
| CC(C)=CCC(C#N)(CC=C(C)C)C(=O)O | inactive | – |
| O=C(Nc1nc(-c2ccccn2)cs1)c1cccc(-n2cnnn2)c1 | – | AC50: 77.9 µM |
| O=C(Cn1cncc1-c1ccc([N+](=O)[O-])cc1)Nc1ccccc1F | inactive | – |
| Cn1cccc1CNCCCSc1ncccn1 | inactive | – |
| O=C(CN1CCOC1=O)N1CCC2(CCC(=O)N(CCCn3ccnc3)C2)CC1 | – | AC50: > 160 µM (inactive) |
| Nc1ccccc1Sc1nccc(C(F)(F)F)n1 | inactive | – |
| O=C1CC(c2ccco2)Cc2nc(N3CCc4ccccc4C3)ncc21 (stereo not given) | inactive | – |
| O=S(=O)(c1ccc2nc(-c3ccco3)c(-c3ccco3)nc2c1)N1CCOCC1 | – | AC50: > 160 µM (inactive) |
| Cc1c(C(=O)OCC2CCCO2)[nH]c2c1C(=O)CC(c1ccco1)C2 (stereo not given) | – | AC50: > 160 µM (inactive) |

| Structure (SMILES) | activity change, negative = inhibition (at 80 µM (top of the series)) | further results |
| --- | --- | --- |
| O=C(Nc1nc(-c2nc3ccccc3s2)cs1)c1ccco1 | inactive | – |
| O=C(Nc1cccc2nsnc12)c1ccc(-c2cccc(Cl)c2)o1 | inactive | – |
| N#Cc1sc2nc(-c3ccccc3)cc(-c3ccco3)c2c1N | inactive | – |
| NC(=O)C1(N2CCCCC2)CCN(c2ncc(NC(=O)c3ccc(F)cc3)cc2C(=O)O)CC1 | – | AC50: 44.2 µM |
| C[C@H](CO)N1C[C@H](C)[C@@H](CN(C)CC2CCCCC2)OCCCC[C@H](C)Oc2ccc(NS(=O)(=O)c3ccc(Cl)cc3)cc2C1=O | inactive | – |
| CCc1cc2c(=O)n(Cc3ccco3)c(SC)nc2s1 | inactive | – |
| O=C(COC(=O)c1ccc(S(=O)(=O)NCc2ccco2)cc1)Nc1ccc(Cl)cn1 | inactive | – |
| CCN(CCNC(=O)C1CCN(S(=O)(=O)c2c(C)noc2C)CC1)c1ccccc1 | inactive | – |
| COCCn1c(C)cc(-c2csc(N)n2)c1C | – | activity change, negative = inhibition (at 38 µM (top of the series)): inactive |
| CCCc1oc(C(=O)O)cc1CN | inactive | – |
| COCC(=O)n1nc(-c2ccco2)nc1NCc1cccs1 | inactive | – |
| O=C(O)c1ccccc1SC1CC(=O)N(Cc2ccccc2)C1=O (stereo not given) | inactive | – |
| COc1ccc(S(=O)(=O)N2CCOCC2)cc1NC(=O)c1cccc(-n2cccc2)c1 | – | AC50: 77.6 µM |
| C(=N\n1cnnc1SCc1ccccc1)/c1ccco1 | inactive | – |
| O=C1C=C(c2ccccc2)Nc2ccccc2N1 | – | AC50: > 160 µM (inactive) |
| CCOC(=O)c1ccc(-c2ccc(C3CC(=O)Nc4cc5c(cc43)OCCO5)o2)cc1 (stereo not given) | inactive | – |
| CCN1CCOC(=O)C1CC(=O)Nc1cccc(C)c1 (stereo not given) | inactive | – |
| Cc1ccc(C)n1NC(=O)c1ccccc1O | inactive | – |
| CCOC(=O)c1[nH]c(Cc2[nH]c(C(=O)OCC)c(C)c2C)c(C)c1C | inactive | – |
| Cc1ccc(-c2cc(C(=O)Nc3ccccn3)c3ccccc3n2)o1 | inactive | – |
| O=C(Cc1ccc(S(=O)(=O)N2CCOCC2)s1)Nc1nc2c(s1)CCCC2 | – | AC50: > 160 µM (inactive) |
| NC(=O)C1(N2CCCCC2)CCN(c2ncc(NC(=O)c3cccs3)cc2C(=O)O)CC1 | – | AC50: 21.3 µM |
| C[C@H](CO)N1C[C@H](C)[C@@H](CN(C)C(=O)C2CCCCC2)OCCCC[C@H](C)Oc2ccc(NS(=O)(=O)c3cccs3)cc2C1=O | inactive | – |
| O=C(NCc1ccco1)c1c2c(nc3ccccc13)CCC2 | – | AC50: > 160 µM (inactive) |

| Structure (SMILES) | activity change, negative = inhibition (at 80 µM (top of the series)) | further results |
| --- | --- | --- |
| COc1cc(N)c(Cc2nccc3cc(OC)c(OC)cc23)cc1OC | inactive | – |
| O=C1CS/C(=N\N=C\c2ccco2)N1c1ccccc1 | inactive | – |
| O=C(CCN1CCOCC1)c1ccc2c(c1)OCCO2 | inactive | – |
| O=C(NCC1CCCO1)c1cc(-c2ccco2)nc2ccccc12 (stereo not given) | – | AC50: > 160 µM (inactive) |
| Cc1cccc(Nc2nc(C(=O)Nc3cc(F)ccc3F)nc3ccccc23)c1 | – | activity change, negative = inhibition (at 38 µM (top of the series)): inactive |
| C[C@H](CO)N1C[C@H](C)[C@@H](CN(C)CC2CCCCC2)OCCCC[C@H](C)Oc2ccc(NS(=O)(=O)c3cccs3)cc2C1=O | inactive | – |
| CS(=O)(=O)N1CCN(c2ccc([N+](=O)[O-])c(SCc3ccco3)c2)CC1 | inactive | – |
| O=C(Nc1cccc2ccccc12)NC1CC1 | inactive | – |
| O=S(=O)(Nc1nc2ccc(S(=O)(=O)N3CCCCC3)cc2s1)c1ccccc1 | inactive | – |
| O=C(COC(=O)c1ccccc1Oc1ccccc1)NCc1ccco1 | inactive | – |
| O=C(Nc1ccc2oc(-c3ccncc3)nc2c1)c1ccc2c(c1)OCO2 | – | AC50: 41.8 µM |
| O=C(Nc1nc(-c2ccco2)c(-c2ccco2)s1)C1CCC1 | – | AC50: 54.7 µM |
| Cc1ccc(-c2nc(C)sc2CC(=O)NCc2ccco2)cc1 | inactive | – |
| C[n+]1cccc2cccc(O)c21 | inactive | – |
| O=C1NC(c2ccc(Br)cc2)Nc2sc3c(c21)CCC3 (stereo not given) | inactive | – |
| O=C(Nc1nnc(-c2ccco2)s1)c1ccccc1 | inactive | – |
| C(=C\c1ccco1)/c1nc2ccccc2[nH]1 | inactive | – |
| O=C(NC1CC1)c1cc(-c2ccco2)nc2ccccc12 | – | AC50: > 160 µM (inactive) |
| O=c1/c(=C/c2ccco2)sc2nc3ccccc3n12 | inactive | – |
| OCc1ccc(O)c2ncccc12 | – | AC50: 23.5 µM |
| COc1ccc(-c2ccc(CCC(=O)O)o2)cc1 | inactive | – |
| O=C(NCc1ccco1)[C@@H]1CSC2c3ccccc3C(=O)N21 (stereo not given in full) | inactive | – |
